Measured values from patent publication US10765651B2, “Co-crystals of substituted glycine and uses thereof” (SyneuRx International (Taiwan) Corp., priority 2017, dated 2020).

Key:
Type in all cases: physicochemical
[1] = Hygroscopicity test, condition 3 (dynamic vapor sorption, 0 to 90 to 0% RH); conditions: DVS, 25° C.
Description: Measurement were taken from 0 to 90 to 0% RH at 25° C. with 10% RH per step with equilibration set to dm/dt+0.01%/min for 10 min or 180 min/step.

[2] = Hygroscopicity test of fumaric acid co-crystals under ambient conditions
Description: 0.1 to 0.5 g of each of 1:1, 2:1, 3:1, and 6:1 N-methylglycine co-crystals were placed in the vial under the ambient conditions. The weight changes at various time points of each co-crystal were measured and illustrated in Table 4 below.

[3] = Hygroscopicity test, condition 2 (humidity chamber, weight change); conditions: for Weight change (%): dry before (change on drying to 0 hr weight)
[4] = 30° C., 75% RH, 5 hr, listed as 1:1 N-methylglycine:DL-tartaric acid co-crystal

With `CNCC(=O)O.CNCC(=O)O.O=C(O)C(O)C(O)C(=O)O` [N-methylglycine:D-tartaric acid 2:1 co-crystal] the “Change In Mass (%)” value ([1]; RH 70%) was 0.31% and the “Change In Mass (%)” value ([1]; RH 90%) was 14.27%.
For `CNCC(=O)O.CNCC(=O)O.CNCC(=O)O.O=C(O)/C=C/C(=O)O` [N-MG/FA = 3/1, N-methylglycine:fumaric acid (3:1 co-crystal)], the “Change In Mass (%)” value ([2]; 15 hr) was 18.29%, the “Change In Mass (%)” value ([2]; 21 hr) was 20.78% and the “Change In Mass (%)” value ([2]; 45 hr) was 26.13%. For the same compound, the “Change In Mass (%)” value ([2]; 48 hr) was 26.37% and the “Change In Mass (%)” value ([2]; 64 hr) was 29.22%.
With `CNCC(=O)O.O=C(O)/C=C/C(=O)O` [N-MG/FA = 1/1, N-methylglycine:fumaric acid (1:1 co-crystal)] the “Hygroscopicity comparison” value [2] was “much less hygroscopic than the 2:1, 3:1, and 6:1 co-crystals”, the “Change In Mass (%)” value ([2]; 1 hr) was 0.48% and the “Change In Mass (%)” value ([2]; 2 hr) was 0.67%. For the same compound, the “Change In Mass (%)” value ([2]; 3 hr) was 0.57%, the “Change In Mass (%)” value ([2]; 4 hr) was 0.57% and the “Change In Mass (%)” value ([2]; 5 hr) was 0.57%. The “Change In Mass (%)” value ([2]; 21 hr) was 0.96%, the “Change In Mass (%)” value ([2]; 24 hr) was 0.96% and the “Change In Mass (%)” value ([2]; 45 hr) was 0.96%. For the same compound, the “Change In Mass (%)” value ([2]; 48 hr) was 0.96% and the “Change In Mass (%)” value ([2]; 96 hr) was 0.96%.
With `CNCC(=O)O.CNCC(=O)O.O=C(O)C(O)C(O)C(=O)O` [N-MG/D-TA = 2/1, N-methylglycine:D-tartaric acid 2:1 co-crystal] the “Change In Mass (%)” value ([1]; RH 0%) was 0.00%, the “Change In Mass (%)” value ([1]; RH 10%) was 0.02% and the “Change In Mass (%)” value ([1]; RH 20%) was 0.04%. For the same compound, the “Change In Mass (%)” value ([1]; RH 30%) was 0.07%, the “Change In Mass (%)” value ([1]; RH 40%) was 0.10% and the “Change In Mass (%)” value ([1]; RH 50%) was 0.15%. For the same compound, the “Change In Mass (%)” value ([1]; RH 60%) was 0.20%, the “Change In Mass (%)” value ([1]; RH 70%) was 0.31% and the “Change In Mass (%)” value ([1]; RH 80%) was 0.60%. For the same compound, the “Change In Mass (%)” value ([1]; RH 90%) was 14.27%.
In the case of `CNCC(=O)O.CNCC(=O)O.O=C(O)/C=C/C(=O)O` [N-MG/FA = 2/1, N-methylglycine:fumaric acid (2:1 co-crystal)], the “Change In Mass (%)” value ([2]; 15 hr) is reported as 5.81%, the “Change In Mass (%)” value ([2]; 21 hr) is reported as 6.29% and the “Change In Mass (%)” value ([2]; 45 hr) is reported as 7.08%. For the same compound, the “Change In Mass (%)” value ([2]; 48 hr) was 7.12% and the “Change In Mass (%)” value ([2]; 64 hr) was 7.49%.
With `CNCC(=O)O.O=C(O)C(O)C(O)C(=O)O` (racemic) [N-MG/DL-TA = 1/1, N-methylglycine:DL-tartaric acid 1:1 co-crystal] the “Weight” value ([3]; 30° C., 75% RH, 0 hr) was 0.1302 g, the “Weight” value ([3]; 30° C., 75% RH, 1 hr) was 0.1349 g and the “Weight change (%), water absorbed” value ([3]; 30° C., 75% RH, 1 hr) was “(+3.6%)”. For the same compound, the “Outward (appearance)” value ([3]; 30° C., 75% RH, 2 hr) was “Wet”, the “Weight” value ([3]; 30° C., 75% RH, 2 hr) was 0.1399 g and the “Weight change (%), water absorbed” value ([3]; 30° C., 75% RH, 2 hr) was “(+7.4%)”. For the same compound, the “Weight” value ([3]; 30° C., 75% RH, 3 hr) was 0.1469 g, the “Weight change (%), water absorbed” value ([3]; 30° C., 75% RH, 3 hr) was “(+12.8%)” and the “Outward (appearance)” value ([3]; 30° C., 75% RH, 5 hr) was “Partial”. For the same compound, the “Weight” value ([3]; 30° C., 75% RH, 5 hr) was 0.1545 g, the “Weight change (%), water absorbed” value ([3]; 30° C., 75% RH, 5 hr) was “(+18.7%)” and the “Outward (appearance)” value [3, 4] was “started to turn into a partial liquid”. For the same compound, the “Weight change (%), water absorbed” value [3, 4] was 18.7%, the “Outward (appearance)” value ([3]; 30° C., 75% RH, 24 hr) was 50% and the “Weight” value ([3]; 30° C., 75% RH, 24 hr) was 0.1819 g. For the same compound, the “Weight change (%), water absorbed” value ([3]; 30° C., 75% RH, 24 hr) was “(+39.7%)”, the “Weight” value ([3]; 30° C., 75% RH, 48 hr) was 0.1819 g and the “Weight change (%), water absorbed” value ([3]; 30° C., 75% RH, 48 hr) was “(+39.7%)”. For the same compound, the “Weight” value ([3]; 30° C., 75% RH, 72 hr) was 0.1823 g, the “Weight change (%), water absorbed” value ([3]; 30° C., 75% RH, 72 hr) was “(+40.0%)” and the “Hygroscopicity comparison” value ([3]; 30° C., 75% RH, listed as 1:1 N-methylglycine:DL-tartaric acid co-crystal) was “much less hygroscopic than 2:1 N-methylglycine:DL-tartaric acid co-crystal”. For the same compound, the “Outward (appearance)” value ([3]; dry before) was “White”, the “Weight” value ([3]; dry before) was 0.1305 g and the “Weight change (%)” value [3] was “(−0.2%)”.
With `CNCC(=O)O.CNCC(=O)O.O=C(O)C(O)C(O)C(=O)O` [N-methylglycine:L-tartaric acid 2:1 co-crystal] the “Change In Mass (%)” value ([1]; RH 70%) was 0.18% and the “Change In Mass (%)” value ([1]; RH 90%) was 10.74%.
With `CNCC(=O)O.CNCC(=O)O.O=C(O)C(O)C(O)C(=O)O` (racemic) [N-methylglycine:DL-tartaric acid 2:1 co-crystal] the “Change In Mass (%)” value ([1]; RH 70%) was 3.12% and the “Change In Mass (%)” value ([1]; RH 90%) was 30.35%.
With `CNCC(=O)O.CNCC(=O)O.CNCC(=O)O.CNCC(=O)O.CNCC(=O)O.CNCC(=O)O.O=C(O)/C=C/C(=O)O` [N-MG/FA = 6/1, N-methylglycine:fumaric acid (6:1 co-crystal)] the “Change In Mass (%)” value ([2]; 15 hr) was 18.30%, the “Change In Mass (%)” value ([2]; 21 hr) was 25.14% and the “Change In Mass (%)” value ([2]; 45 hr) was 47.59%. For the same compound, the “Change In Mass (%)” value ([2]; 48 hr) was 48.84% and the “Change In Mass (%)” value ([2]; 64 hr) was 56.36%.
For `CNCC(=O)O.CNCC(=O)O.O=C(O)C(O)C(O)C(=O)O` (racemic) [N-MG/DL-TA = 2/1, N-methylglycine:DL-tartaric acid 2:1 co-crystal], the “Weight” value ([3]; 30° C., 75% RH, 0 hr) was 0.1628 g, the “Weight” value ([3]; 30° C., 75% RH, 1 hr) was 0.1695 g and the “Weight change (%), water absorbed” value ([3]; 30° C., 75% RH, 1 hr) was “(+4.1%)”. For the same compound, the “Outward (appearance)” value ([3]; 30° C., 75% RH, 2 hr) was “Wet”, the “Weight” value ([3]; 30° C., 75% RH, 2 hr) was 0.1768 g and the “Weight change (%), water absorbed” value ([3]; 30° C., 75% RH, 2 hr) was “(+8.6%)”. The “Weight” value ([3]; 30° C., 75% RH, 3 hr) was 0.1816 g, the “Weight change (%), water absorbed” value ([3]; 30° C., 75% RH, 3 hr) was “(+11.5%)” and the “Outward (appearance)” value ([3]; 30° C., 75% RH, 5 hr) was “Partial”. For the same compound, the “Weight” value ([3]; 30° C., 75% RH, 5 hr) was 0.1877 g, the “Weight change (%), water absorbed” value ([3]; 30° C., 75% RH, 5 hr) was “(+15.3%)” and the “Outward (appearance)” value ([3]; 30° C., 75% RH, 24 hr) was “Liquid”. The “Weight” value ([3]; 30° C., 75% RH, 24 hr) was 0.2374 g, the “Weight change (%), water absorbed” value ([3]; 30° C., 75% RH, 24 hr) was “(+45.8%)” and the “Weight” value ([3]; 30° C., 75% RH, 48 hr) was 0.2423 g. For the same compound, the “Weight change (%), water absorbed” value ([3]; 30° C., 75% RH, 48 hr) was “(+48.8%)”, the “Weight” value ([3]; 30° C., 75% RH, 72 hr) was 0.2441 g and the “Weight change (%), water absorbed” value ([3]; 30° C., 75% RH, 72 hr) was “(+49.9%)”. The “Outward (appearance)” value ([3]; dry before) was “White”, the “Weight” value ([3]; dry before) was 0.1628 g and the “Weight change (%)” value [3] was “(−0%)”. The “Change In Mass (%)” value ([1]; RH 0%) was 0.00%, the “Change In Mass (%)” value ([1]; RH 10%) was 0.15% and the “Change In Mass (%)” value ([1]; RH 20%) was 0.21%. For the same compound, the “Change In Mass (%)” value ([1]; RH 30%) was 0.26%, the “Change In Mass (%)” value ([1]; RH 40%) was 0.77% and the “Change In Mass (%)” value ([1]; RH 60%) was 2.03%. The “Change In Mass (%)” value ([1]; RH 70%) was 3.12%, the “Change In Mass (%)” value ([1]; RH 80%) was 8.12% and the “Change In Mass (%)” value ([1]; RH 90%) was 30.35%.
